From ChEMBL document CHEMBL4342527, “Discovery of Novel Fungal Lanosterol 14α-Demethylase (CYP51)/Histone Deacetylase Dual Inhibitors to Treat Azole-Resistant Candidiasis” (J Med Chem, 2020)
In brackets after ≈: the same amount, converted by molar mass.

Legend:
Candida albicans [1] = experiment: Antifungal activity against azole-resistant Candida albicans 7781 after 48 hrs by spectrophotometry-based serial microdilution method; assay type: functional; conditions: Candida albicans, 7781, 48 h
Candida albicans [2] = experiment: Antifungal activity against azole-resistant Candida albicans 0304103 after 48 hrs by spectrophotometry-based serial microdilution method; assay type: functional; conditions: Candida albicans, 0304103, 48 h
Candida albicans [3] = experiment: Antifungal activity against azole-sensitive Candida albicans SC5314 after 48 hrs by spectrophotometry-based serial microdilution method; assay type: functional; conditions: Candida albicans, SC5314, 48 h; read-out: MIC80
Cryptococcus neoformans = experiment: Antifungal activity against azole-sensitive Cryptococcus neoformans H99 after 72 hrs by spectrophotometry-based serial microdilution method; assay type: functional, var grubii H99; conditions: Cryptococcus neoformans, var grubii H99 , 72 h; read-out: MIC80
Candida albicans [4] = experiment: Antifungal activity against azole-resistant Candida albicans 4108 after 48 hrs by spectrophotometry-based serial microdilution method; assay type: functional; conditions: Candida albicans, 4108, 48 h
Candida tropicalis = experiment: Antifungal activity against azole-resistant Candida tropicalis 5008 after 48 hrs by spectrophotometry-based serial microdilution method; assay type: functional; conditions: Candida tropicalis, 5008, 48 h

SMILES	MIC80 (Candida albicans [1]) [µg/mL]	MIC80 (Candida albicans [2]) [µg/mL]	MIC80 (Candida albicans [3]) [µg/mL]	MIC80 (Cryptococcus neoformans) [µg/mL]	MIC80 (Candida albicans [4]) [µg/mL]	MIC80 (Candida tropicalis) [µg/mL]
CN(Cc1ccccc1OCCCOc1ccc(C(=O)NO)cc1)CC(O)(Cn1cncn1)c1ccc(F)cc1F (racemic)	4 (≈ 7.05 µM)	4 (≈ 7.05 µM)	4 (≈ 7.05 µM)	0.5 (≈ 0.881 µM)	1 (≈ 1.76 µM)	8 (≈ 14.1 µM)
CN(Cc1ccc(-n2cnn(CCCCCCCC(=O)NO)c2=O)cc1)CC(O)(Cn1cncn1)c1ccc(F)cc1F (racemic)	8 (≈ 13.4 µM)	8 (≈ 13.4 µM)	16 (≈ 26.7 µM)	2 (≈ 3.34 µM)	64 (≈ 107 µM)	8 (≈ 13.4 µM)
CN(Cc1ccc(-n2cnn(CCCCCC(=O)NO)c2=O)cc1)CC(O)(Cn1cncn1)c1ccc(F)cc1F (racemic)	32 (≈ 56.1 µM)	16 (≈ 28 µM)	32 (≈ 56.1 µM)	8 (≈ 14 µM)	64 (≈ 112 µM)	64 (≈ 112 µM)
CN(Cc1ccc(-n2cnn(CCCCC(=O)NO)c2=O)cc1)CC(O)(Cn1cncn1)c1ccc(F)cc1F (racemic)	> 64	64 (≈ 115 µM)	32 (≈ 57.5 µM)	64 (≈ 115 µM)	> 64	> 64
O=C(Cc1ccc(OCCCOc2ccc(CN(CC(O)(Cn3cncn3)c3ccc(F)cc3F)C3CC3)cc2)cc1)NO (racemic)	4 (≈ 6.58 µM)	8 (≈ 13.2 µM)	8 (≈ 13.2 µM)	4 (≈ 6.58 µM)	32 (≈ 52.7 µM)	16 (≈ 26.3 µM)
CN(Cc1ccccc1OCCCOc1ccc(CC(=O)NO)cc1)CC(O)(Cn1cncn1)c1ccc(F)cc1F (racemic)	2 (≈ 3.44 µM)	2 (≈ 3.44 µM)	1 (≈ 1.72 µM)	0.5 (≈ 0.86 µM)	2 (≈ 3.44 µM)	2 (≈ 3.44 µM)
CN(Cc1ccc(-n2cnn(CCCOc3ccc(CC(=O)NO)cc3)c2=O)cc1)CC(O)(Cn1cncn1)c1ccc(F)cc1F (racemic)	4 (≈ 6.17 µM)	32 (≈ 49.3 µM)	64 (≈ 98.7 µM)	8 (≈ 12.3 µM)	32 (≈ 49.3 µM)	4 (≈ 6.17 µM)
CN(Cc1cccc(OCCCOc2ccc(CCC(=O)NO)cc2)c1)CC(O)(Cn1cncn1)c1ccc(F)cc1F (racemic)	8 (≈ 13.4 µM)	8 (≈ 13.4 µM)	4 (≈ 6.72 µM)	2 (≈ 3.36 µM)	4 (≈ 6.72 µM)	8 (≈ 13.4 µM)
CN(Cc1ccc(OCCCCCCCC(=O)NO)cc1)CC(O)(Cn1cncn1)c1ccc(F)cc1F (racemic)	0.5 (≈ 0.941 µM)	0.5 (≈ 0.941 µM)	0.25 (≈ 0.47 µM)	0.5 (≈ 0.941 µM)	0.5 (≈ 0.941 µM)	1 (≈ 1.88 µM)
CN(Cc1cccc(OCCCOc2ccc(C(=O)NO)cc2)c1)CC(O)(Cn1cncn1)c1ccc(F)cc1F (racemic)	4 (≈ 7.05 µM)	2 (≈ 3.52 µM)	1 (≈ 1.76 µM)	0.125 (≈ 0.22 µM)	2 (≈ 3.52 µM)	4 (≈ 7.05 µM)
CN(Cc1ccc(-n2cnn(CCCCCCCCC(=O)NO)c2=O)cc1)CC(O)(Cn1cncn1)c1ccc(F)cc1F (racemic)	4 (≈ 6.53 µM)	4 (≈ 6.53 µM)	2 (≈ 3.26 µM)	4 (≈ 6.53 µM)	32 (≈ 52.2 µM)	8 (≈ 13.1 µM)
CN(Cc1ccc(-n2cnn(CCCc3ccc(C(=O)NO)cc3)c2=O)cc1)CC(O)(Cn1cncn1)c1ccc(F)cc1F (racemic)	2 (≈ 3.23 µM)	4 (≈ 6.47 µM)	32 (≈ 51.7 µM)	2 (≈ 3.23 µM)	32 (≈ 51.7 µM)	8 (≈ 12.9 µM)
CN(Cc1ccc(CCCC(=O)Nc2ccc(CC(=O)NO)cc2)cc1)CC(O)(Cn1cncn1)c1ccc(F)cc1F (racemic)	1 (≈ 1.69 µM)	1 (≈ 1.69 µM)	1 (≈ 1.69 µM)	1 (≈ 1.69 µM)	1 (≈ 1.69 µM)	32 (≈ 54 µM)
O=C(NO)c1ccc(OCCCc2ncnn2CC(O)(Cn2cncn2)c2ccc(F)cc2F)cc1 (racemic)	8 (≈ 16 µM)	32 (≈ 64.1 µM)	64 (≈ 128 µM)	64 (≈ 128 µM)	64 (≈ 128 µM)	> 64
O=C(NO)c1ccc(OCCCCc2ncn(CC(O)(Cn3cncn3)c3ccc(F)cc3F)n2)cc1 (racemic)	64 (≈ 125 µM)	> 64	4 (≈ 7.79 µM)	64 (≈ 125 µM)	> 64	> 64
CN(Cc1ccc(CCCCOc2ccc(CC(=O)NO)cc2)cc1)CC(O)(Cn1cncn1)c1ccc(F)cc1F (racemic)	1 (≈ 1.73 µM)	0.5 (≈ 0.863 µM)	0.125 (≈ 0.216 µM)	0.5 (≈ 0.863 µM)	1 (≈ 1.73 µM)	0.5 (≈ 0.863 µM)
CCN(Cc1ccc(OCCCOc2ccc(CC(=O)NO)cc2)cc1)CC(O)(Cn1cncn1)c1ccc(F)cc1F (racemic)	1 (≈ 1.68 µM)	1 (≈ 1.68 µM)	0.25 (≈ 0.42 µM)	1 (≈ 1.68 µM)	4 (≈ 6.72 µM)	4 (≈ 6.72 µM)
CN(Cc1ccc(OCCCCCC(=O)NO)cc1)CC(O)(Cn1cncn1)c1ccc(F)cc1F (racemic)	1 (≈ 1.99 µM)	2 (≈ 3.97 µM)	1 (≈ 1.99 µM)	1 (≈ 1.99 µM)	4 (≈ 7.94 µM)	8 (≈ 15.9 µM)
